Values quoted from earlier work, collected in US6486349B1, “Amide therapeutics and methods for treating inflammatory bowel disease” (Centaur Pharmaceuticals, Inc., priority 1999, dated 2002).

System: senescence-accelerated mice

## CC(C)(C)/[N+]([O-])=C/c1ccccc1 [PBN, α-phenyl-t-butyl nitrone]
  increase of the life span: one third
